Experimental data reported in ChEMBL document CHEMBL1201862, “PubChem BioAssay data set” (2004).
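Protocol summary: plate cells (96-well), add compound at 5 concentrations, incubate 48 h, interpolate endpoints linearly. Here, GI50 denotes the concentration required for 50% inhibition of growth.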 Activity calls are given as the source filed them. Cut-off read from the data, not from the text of the source: active = GI50 up to about 1.1 µM and inactive = higher.

Columns and labels:
Test in all cases: NCI anticancer screen, dose series, 48 h
HOP-92 = system: HOP-92
NCI-H522 = system: NCI-H522
COLO 205 = system: COLO 205
OVCAR-8 = system: OVCAR-8
NCI-H460 = system: NCI-H460
T47D = system: T47D
BT-549 = system: BT-549
SK-OV-3 = system: SK-OV-3
SK-MEL-2 = system: SK-MEL-2
ACHN = system: ACHN
KM12 = system: KM12
PC-3 = system: PC-3
HOP-62 = system: HOP-62
SK-MEL-28 = system: SK-MEL-28
U-251 = system: U-251
M14 = system: M14
HCT-15 = system: HCT-15
LOX IMVI = system: LOX IMVI
MDA-MB-435 = system: MDA-MB-435

Structure (SMILES)	GI50 (HOP-92)	GI50 (NCI-H522)	GI50 (COLO 205)	GI50 (OVCAR-8)	GI50 (NCI-H460)	GI50 (T47D)	GI50 (BT-549)	GI50 (SK-OV-3)	GI50 (SK-MEL-2)	GI50 (ACHN)	GI50 (KM12)	GI50 (PC-3)	GI50 (HOP-62)	GI50 (SK-MEL-28)	GI50 (U-251)	GI50 (M14)	GI50 (HCT-15) [µM]	GI50 (LOX IMVI)	GI50 (MDA-MB-435)
CCOc1cc2c(cc1O)CC[C@@H]1[C@@H]2CC[C@]2(C)C(N)CC[C@@H]12 (stereo partly specified)	10.6 µM (inactive)	3.45 µM (inactive)	4.49 µM (inactive)	2.71 µM (inactive)	2.91 µM (inactive)	8.53 µM (inactive)	11.2 µM (inactive)	3.19 µM (inactive)	4.32 µM (inactive)	4.58 µM (inactive)	1.58 µM (inactive)	2.93 µM (inactive)	5.94 µM (inactive)	9.62 µM (inactive)	2.89 µM (inactive)	4.05 µM (inactive)	3.4	4.06 µM (inactive)	1.63 µM (inactive)
COc1ccc(C(=O)/C=C/c2cccnc2)cc1OC	13 µM (inactive)	1.83 µM (inactive)	10.9 µM (inactive)	5.81 µM (inactive)	–	8.45 µM (inactive)	6.18 µM (inactive)	15.3 µM (inactive)	13.2 µM (inactive)	13.8 µM (inactive)	–	14.7 µM (inactive)	14.9 µM (inactive)	16.2 µM (inactive)	5.09 µM (inactive)	13.4 µM (inactive)	11.4	1.58 µM (inactive)	14.8 µM (inactive)
NC(=O)CCC(CCC(N)=O)(CCC(N)=O)[N+](=O)[O-]	> 100 µM (inactive)	65.9 µM (inactive)	> 100 µM (inactive)	> 100 µM (inactive)	> 100 µM (inactive)	> 100 µM (inactive)	> 100 µM (inactive)	> 100 µM (inactive)	> 100 µM (inactive)	> 100 µM (inactive)	> 100 µM (inactive)	> 100 µM (inactive)	–	–	> 100 µM (inactive)	> 100 µM (inactive)	> 100	–	> 100 µM (inactive)
O=S(=O)(O)c1ccc(O)c(/N=N/c2c(O)ccc3ccccc23)c1	> 100 µM (inactive)	> 100 µM (inactive)	87.3 µM (inactive)	> 100 µM (inactive)	–	> 100 µM (inactive)	> 100 µM (inactive)	> 100 µM (inactive)	> 100 µM (inactive)	–	> 100 µM (inactive)	> 100 µM (inactive)	> 100 µM (inactive)	> 100 µM (inactive)	73.6 µM (inactive)	> 100 µM (inactive)	> 100	> 100 µM (inactive)	> 100 µM (inactive)
COc1cc(-c2oc3c(OC)cc(OC)c(O)c3c(=O)c2OC)cc(OC)c1OC	15.6 µM (inactive)	3.38 µM (inactive)	> 100 µM (inactive)	5.21 µM (inactive)	4.47 µM (inactive)	3.76 µM (inactive)	5.32 µM (inactive)	3.29 µM (inactive)	–	8.49 µM (inactive)	> 100 µM (inactive)	9.57 µM (inactive)	2.06 µM (inactive)	> 100 µM (inactive)	4.65 µM (inactive)	> 100 µM (inactive)	–	3.24 µM (inactive)	> 100 µM (inactive)
Cc1cc(C)c2c(c1)CC1(Cc3c(ccc(C)c3C)C1=O)C2=O (stereo unspecified)	> 100 µM (inactive)	> 100 µM (inactive)	> 10 µM (inactive)	> 100 µM (inactive)	> 100 µM (inactive)	> 100 µM (inactive)	> 100 µM (inactive)	> 100 µM (inactive)	> 100 µM (inactive)	> 100 µM (inactive)	> 100 µM (inactive)	> 100 µM (inactive)	–	> 100 µM (inactive)	> 100 µM (inactive)	> 100 µM (inactive)	> 100	–	> 100 µM (inactive)
O=[N+]([O-])c1cccnc1NCC1(CO)CC(Cc2ccccc2)C1 (stereo unspecified)	11.1 µM (inactive)	> 100 µM (inactive)	> 100 µM (inactive)	> 100 µM (inactive)	> 100 µM (inactive)	> 100 µM (inactive)	> 100 µM (inactive)	> 100 µM (inactive)	> 100 µM (inactive)	> 100 µM (inactive)	> 100 µM (inactive)	> 100 µM (inactive)	> 100 µM (inactive)	> 100 µM (inactive)	> 100 µM (inactive)	–	> 100	> 100 µM (inactive)	> 100 µM (inactive)
